Patent publication US20250098692A1, “GERMINATION/SPROUTING AND FRUIT RIPENING REGULATORS” (The United States of America, as Represented by the …, priority 2021, published 2025)

Tests used:
[1] = system: strawberry fruit; assay: PAD analogs: ability to delay strawberry fruit ripening; type: in vivo; conditions: for effect on strawberry fruit ripening: 50 μM in 0.1% TRITON-X 100
Description: Chemicals with similarity to PAD were tested for their ability to delay fruit ripening.
To the inventors' knowledge, no chemical closely-related to PAD is currently commercially available. A few analogs with 88-99% similarity to PAD were found in the ChemBridge database used in Example 1.

[2] = system: strawberry fruit; assay: Strawberry fruit ripening after dipping fruits on the plant; type: in vivo, Fragaria x ananassa CV. Albion; conditions: for strawberry appearance (FIG. 2B): 8 DAT; for strawberry appearance (FIG. 2B) / strawberry appearance (FIG. 2C) / strawberry appearance (FIG. 2D) / strawberry appearance (FIG. 2E) / strawberry appearance (FIG. 2F) / fruit started to turn red: 10 μM PAD or 1 mM ABA; for strawberry appearance (FIG. 2C): 9 DAT; for strawberry appearance (FIG. 2D): 10 DAT; for strawberry appearance (FIG. 2E): 11 DAT; for strawberry appearance (FIG. 2F): 12 DAT; for effect on strawberry fruit ripening compared to mock-treated fruit: dipped 20 seconds eight days after pollination, 10 μM PAD or 1 mM ABA in 0.1% TRITON X-100
Description: Strawberry plants (Fragaria x ananassa CV. Albion) were grown in a greenhouse at 28° C. and 14-hour light/10-hour dark conditions. Eight days after pollination, fruits were dipped for 20 seconds in 10 µM PAD in 0.1% TRITON X-100 surfactant; 1 mM ABA in 0.1% TRITON X-100 surfactant; or buffer alone (0.1% Triton X-100). Fruits were allowed to continue growing on the plants. FIG. 1 depicts images of strawberry fruit development under standard conditions.
Of the twelve chemicals identified in Example 1 as promoting seed germination, N-[3-chloro-4-(4-propionyl-1-piperazinyl)phenyl]-2-phenylacetamide was named “PAD,” and used for further study. […] Mock-treated fruit started to turn red at 10 DAT, and reached full red at 12 DAT. ABA-treated fruit started to turn red 9 DAT, and reached full red 11 DAT. In contrast, PAD-treated fruit only started turning red 12 DAT.

[3] = system: strawberry fruit; assay: Strawberry fruit ripening after injection of fruits; type: in vivo, Fragaria x ananassa CV. Albion; conditions: for strawberry appearance (FIG. 4A): 8 DAT; for strawberry appearance (FIG. 4A) / strawberry appearance (FIG. 4B) / strawberry appearance (FIG. 4C) / strawberry appearance (FIG. 4D) / strawberry appearance (FIG. 4E) / fruit started to turn red: 10 µM PAD or 200 μM ABA; for strawberry appearance (FIG. 4B): 9 DAT; for strawberry appearance (FIG. 4C): 10 DAT; for strawberry appearance (FIG. 4D): 11 DAT; for strawberry appearance (FIG. 4E): 12 DAT
Description: Strawberry plants (Fragaria x ananassa CV. Albion) were grown and maintained as disclosed above. Fourteen days after pollination fruits were injected with 10 µM PAD in 0.1% TRITON X-100 surfactant; 200 μM ABA in 0.1% TRITON X-100 surfactant; or buffer alone (0.1% Triton X-100 surfactant).
FIG. 4A to FIG. 4F depict images of strawberries treated with either 10 µM PAD in 0.1% TRITON X-100 surfactant; 200 μM ABA in 0.1% TRITON X-100 surfactant; buffer alone ([…] surfactant; mock-treated); or not injected (control). […] Control fruit started to turn red 11 DAT, and reached full red at 12 DAT. Mock-treated fruit started to turn red at 10 DAT, and reached full red at 12 DAT. ABA-treated fruit started to turn red 9 DAT, and reached full red 11 DAT. In contrast, PAD-treated fruit only started turning red 12 DAT.

[4] = system: Cherry tomato fruits; assay: Cherry tomato ripening after injection at mature green stage; type: in vivo; conditions: for cherry tomato appearance (FIG. 3B, FIG. 3D): 6 DAT, injected 10 µM PAD or 200 μM ABA (figure legend); for ripening stage of cherry tomato fruits: six days after treatment, injected 50 μM PAD or 200 μM ABA
Description: Cherry tomato fruits at mature green stage were purchased from Butler's Orchard (Germantown, Maryland, USA). […] FIG. 3A and FIG. 3B show images of cherry tomatoes injected with 50 µM PAD. FIG. 3C and FIG. 3D show images of cherry tomatoes injected with 200 μM ABA. FIG. 3E and FIG. 3F show images of cherry tomatoes injected with buffer alone. FIG. 3G and FIG. 3H show images of untreated tomatoes. FIG. 3A; FIG. 3C; FIG. 3E; and FIG. 3G show images taken the day of treatment. FIG. 3B; FIG. 3D; […]; and FIG. 3H show images taken 6 DAT.

[5] = system: Strawberry seeds (Fragaria x ananassa CV. Albion); assay: Chemical library screening for promotion of strawberry seed germination; type: in vivo; conditions: about 5 μM chemical in 0.1% TRITON X-100, 96 well plates, 25 C
From the text: Chemical libraries of small compounds were screened for compounds capable of promoting seed germination, delaying the fruit ripening process, and/or retarding fruit pigmentation. A chemical library containing 10,000 small compounds (˜300 Dalton) was purchased from ChemBridge Co (San Diego, California, USA). Strawberry seeds (Fragaria x ananassa CV. Albion) were purchased from Johnny's Seeds (Fairfield, Maine, USA). Five to six seeds were sterilized with 70% ethanol and added to each well of 96 well ELISA plates containing about 5 μM chemical in 0.1% TRITON X-100 surfactant (polyethylene glycol tert-octylphenyl ether). One mM abscisic acid (ABA), a hormone that inhibits seed germination, and gibberellic acid (GA3), a hormone that promotes seed germination, were used as controls. Each experiment was conducted in triplicate. Plates were kept in a growth chamber at 25 C under dark, and a 14 hour light/10 hour dark cycle was added after seed germination was observed.

[6] = system: strawberry fruit; assay: Strawberry fruit ripening after dipping fruits on the plant; type: in vivo, Fragaria x ananassa CV. Albion; conditions: 10 μM PAD applied on day 9 after pollination

CC(C)C(=O)N1CCN(c2ccc(NC(=O)Cc3ccc(Cl)cc3)cc2)CC1 [2-(4-chlorophenyl)-N-[4-(4-isobutyryl-1-piperazinyl)phenyl]acetamide]
effect on strawberry fruit ripening [1]: no obvious effect

CC1=CC(=O)CC(C)(C)[C@@]1(O)/C=C/C(C)=C\C(=O)O [ABA, abscisic acid, reference compound]
strawberry appearance (FIG. 2B) ([2]; dipped): white | strawberry appearance (FIG. 2C) ([2]; dipped): with pink spots | strawberry appearance (FIG. 2D) ([2]; dipped): mostly red | strawberry appearance (FIG. 2E) ([2]; dipped): red | strawberry appearance (FIG. 2F) ([2]; dipped): red | effect on strawberry fruit ripening compared to mock-treated fruit [2]: stimulated strawberry fruit ripening | fruit started to turn red ([2]; dipped, days after treatment): 9 DAT | fruit reached full red ([2]; dipped, 1 mM ABA, days after treatment): 11 DAT | strawberry appearance (FIG. 4A) ([3]; injected): with pink spots | strawberry appearance (FIG. 4B) ([3]; injected): mostly red | strawberry appearance (FIG. 4C) ([3]; injected): mostly red | strawberry appearance (FIG. 4D) ([3]; injected): mostly red | strawberry appearance (FIG. 4E) ([3]; injected): red | fruit started to turn red ([3]; injected, days after treatment): 9 DAT | fruit reached full red ([3]; injected, 200 μM ABA, days after treatment): 11 DAT | cherry tomato appearance (FIG. 3B, FIG. 3D) [4]: red | ripening stage of cherry tomato fruits [4]: fully ripen (red stage)

CC(C)C(=O)N1CCN(c2ccc(NC(=O)C(c3ccccc3)c3ccccc3)cc2Cl)CC1 [N-(3-chloro-4-(4-isobutyryl-1-piperazinyl)phenyl]-2,2-diphenylacetamide]
effect on strawberry fruit ripening [1]: no obvious effect

CC(C)(C)C(=O)N1CCN(c2ccc(NC(=O)Cc3ccccc3)cc2Cl)CC1 [N-(3-chloro-4-[4-(2,2-dimethylpropanoyl)-1-piperazinyl]phenyl)-2-phenylacetamide]
effect on strawberry fruit ripening [1]: delayed strawberry fruit ripening | effectiveness in delaying strawberry fruit ripening relative to PAD ([1]; 50 μM in 0.1% TRITON-X 100, same timing as PAD): much less effectively than PAD

CCC(=O)N1CCN(c2ccc(NC(=O)Cc3ccccc3)cc2Cl)CC1 [PAD, N-[3-chloro-4-(4-propionyl-1-piperazinyl)phenyl]-2-phenylacetamide]
promoting seed germination [5]: promoted seed germination | strawberry appearance (FIG. 2B) ([2]; dipped): white with a greenish tint | strawberry appearance (FIG. 2C) ([2]; dipped): whit with a greenish tint | strawberry appearance (FIG. 2D) ([2]; dipped): white with a greenish tint | strawberry appearance (FIG. 2E) ([2]; dipped): white | strawberry appearance (FIG. 2F) ([2]; dipped): red with some yellow | fresh weight of strawberry fruit larger than mock-treated ([2]; PAD-treated vs mock-treated): about 10% | sugar content versus mock-treated controls ([2]; PAD-treated vs mock-treated): no difference in the sugar content | effect on strawberry fruit ripening compared to mock-treated fruit [2]: delayed fruit ripening | fruit started to turn red ([2]; dipped, days after treatment): 12 DAT | strawberry appearance (FIG. 4A) ([3]; injected): with pink spots | strawberry appearance (FIG. 4B) ([3]; injected): orange | strawberry appearance (FIG. 4C) ([3]; injected): mostly red | strawberry appearance (FIG. 4D) ([3]; injected): mostly red | strawberry appearance (FIG. 4E) ([3]; injected): red | effect on strawberry fruit ripening compared to not-treated, mock-treated and ABA treated fruit ([3]; injected fourteen days after pollination, 10 µM PAD): delayed fruit ripening | fruit started to turn red ([3]; injected, days after treatment): 12 DAT | cherry tomato appearance (FIG. 3B, FIG. 3D) [4]: with a yellow and/or yellow/red tint | effect on cherry tomato ripening compared to mock-treated or untreated ([4]; injected 50 μM PAD): delay in cherry tomato ripening | delay in cherry tomato fruit ripening ([4]; mature green stage, 50 μM PAD): about a seven-day delay | ripening stage of cherry tomato fruits [4]: still at a green stage | delay of strawberry fruit ripening compared with mock-treated [6]: about 2 days
